Patent US20060051868A1, “Methods for increasing conifer somatic embryo initiation, capture, and multiplication” (priority 2001, published 2006)

Legend:
[1] = tested on: Loblolly pine megagametophytes; test: Initiation frequency of embryogenic cultures from Loblolly pine megagametophyte explants; type: cell-based
Protocol: Explants were megagametophytes isolated from Loblolly pine summer cones when embryos were at approximately stage 2-4. Seeds were. collected from four individual trees of diverse genotypes. Extracted seeds were soaked in running water for 10 minutes, agitated in 10% liquinox supplemented with 1.1 ml/l of Tween 20 for 10 minutes, and rinsed with water for 30 minutes. Seeds were sterilized in a laminar flow hood by agitating in 20% hydrogen peroxide for 10 minutes and rinsing with sterile deionized water. The seed coat, integuments, and nucellus were removed to isolate the megagametophytes. Culturing was performed in 24-well multi-well culture plates with each well having an approximate volume of 3.0 ml. Two ml of media was poured into each well.
Each replication consisted of eight adjacent wells on a multi-well plate, with one megagametophyte per well, providing three replications per multi-well plate. Twelve replications (for a total of 96 explants) were performed per treatment for each cone collection. The well plates were wrapped in Parafilm®, elastic wrap to minimize evaporation and incubated at 22-24° C. under dark conditions for nine weeks. Initiation frequency was scored for each dish by counting the number of explants which had successfully initiated embryogenic cultures.
The media treatments consisted of: (1) a control media #1043 (see Table 21); (2) media #1218, comprising media #1043 supplemented with 250 mg/l MES buffer; (3) media #1043 supplemented with 0.5 ppm folic acid and 0.05 ppm biotin; and (4) media #1218 supplemented with 0.5 ppm folic acid and 0.05 ppm biotin.
A representative procedure is shown for Loblolly pine. Experimental procedure follow similarly for other conifer but differ slightly in the composition of media used. […] Here, however, each treatment-genotype test consisted of ten replications of ten explants.
The cultures were covered and incubated in the dark at 24-26° C. for nine weeks.
Explants from four Loblolly pine cone collections were prepared and cultured as described in Example 2. The media treatments consisted of control media, #1218, which is media #1043 supplemented. with 250 mg/l MES, and four treatment media, which consist of media #1218 supplemented with 0.33, 1.0, 2.0, and 3.0 ppm paclobutrazol, respectively.
Four cone collections with embryos at stages 2-4 were used. Eighty explants from each cone collection on each media were tested. Seeds were removed from cones and soaked in running water for 10 min. Seeds were then agitated in 10% liquinox containing 1.1 ml/l Tween 20 for 10 min., and then rinsed with running tap water for 30 min. After transferring to a sterile hood, seeds were agitated in 20% H2O2 for 10 min., rinsed with sterile nanopure® H2O five times for 5 to 10 min. intervals, and then placed into a sterile petri dish for dissection. Seeds were dissected by splitting the seed coat, removing the integuments and nucellus. The megagametophyte was placed onto the appropriate medium. Each multi-well test plate contained 2 ml of solid media. Plates were incubated in the dark for 8 weeks and then scored.
The control media, media #1253, is described in detail in Table 16. All test media, #1275, #1421, #1422, and #1423 were comprised of the control media with the addition of a gibberellin inhibitor.

[2] = tested on: Loblolly pine embryogenic cultures; test: Growth of Loblolly pine embryogenic cultures from single somatic embryos (tissue diameter, area); type: cell-based; details: for Diameter of tissue (mm) / Approximate tissue area (mm^2): four weeks; for Diameter of tissue (mm): control 4.01; for Approximate tissue area (mm^2): control 12.6
Protocol: Three previously initiated Loblolly pine embryogenic cultures, each representing a different genotype, were grown in liquid media #1133, used as starting material for embryogenic cultures on various treatment media. Using a dissecting scope, individual stage 2 somatic embryos were extracted and placed on treatment media in the center of individual wells on a well plate. Forty embryos were prepared per treatment media, per genotype. Well plates were wrapped in Parafilm® and cultured under standard conditions at room temperature in the dark for four weeks. Embryogenic cultures derived from the single isolated embryos proliferated and spread over the surface of the culture medium. Spreading cultures were roughly circular in shape, radiating from the central embryo. At the end of four weeks, the growth of each culture was measured by measuring colony diameter using a dissecting scope ocular micrometer. Five treatment media were compared to control media #1043 (Table 21). Three media consisted of #1043 supplemented with paclobutrazol at concentrations of 0.33, 1.0 and 3.0 ppm. A B-vitamin treatment contained biotin at 0.05 ppm and folic acid at 0.5 ppm. […] The pH of media containing four different concentrations of MES was compared to that of a non-buffered control media during eight weeks of embryogenic culture growth. Maintenance cultures were established on treatment media using single isolated somatic embryos. Maintenance cultures were prepared and cultured essentially as described in Example 5. The control media was #1043. (See Table 21). The treatment media consisted of #1043 supplemented with 250, 500, 1000 and 1500 mg/l MES. Media pH was adjusted to 5.7 within all treatments prior to autoclaving, pouring and solidification. Immediately after pouring the media, and thereafter at two week intervals, media pH was measured up to the eighth week of culture growth. At each sampling time, four cultures from each media-genotype treatment were destructively sampled to measure the pH of the media directly underlying the growing embryogenic tissue. This experiment measured the effects of ABA, vitamins, culturing in a closed container, and culturing at increased atmospheric pressure on the growth of embryogenic cultures. Maintenance cultures were prepared on well plates using single somatic embryos, essentially as described in Example 5.

| SMILES | Initiation Frequency (%) ([1]; 0.33 ppm in buffered media #1218 (Media 1043 + 250 mg/l MES), control 40.5) | Initiation Frequency (%) ([1]; 0.33 ppm in media #1043, nine weeks, control 39.1) | Initiation Frequency (%) ([1]; 1.0 ppm in buffered media #1218 (Media 1043 + 250 mg/l MES), control 40.5) | Initiation Frequency (%) ([1]; 2.0 ppm in buffered media #1218 (Media 1043 + 250 mg/l MES), control 40.5) | Initiation Frequency (%) ([1]; 3.0 ppm in buffered media #1218 (Media 1043 + 250 mg/l MES), control 40.5) | Initiation Frequency (%) ([1]; base media #1253, 1.0 ppm paclobutrazol, 0.1062 ppm flurprimidol, 1.58 ppm chlormequat-Cl, 0.16 ppm succinic acid-dh, 8 weeks, dark, control 29.5) | Extrusion (%) ([1]; base media #1253, 1.0 ppm paclobutrazol, 0.1062 ppm flurprimidol, 1.58 ppm chlormequat-Cl, 0.16 ppm succinic acid-dh, 8 weeks, dark, control 58.6) | Diameter of tissue (mm) ([2]; 0.33 ppm in media #1043) | Approximate tissue area (mm^2) ([2]; 0.33 ppm in media #1043) | Diameter of tissue (mm) ([2]; 1.0 ppm in media #1043) | Approximate tissue area (mm^2) ([2]; 1.0 ppm in media #1043) | Diameter of tissue (mm) ([2]; 3.0 ppm in media #1043) | Approximate tissue area (mm^2) ([2]; 3.0 ppm in media #1043) | Initiation Frequency (%) ([1]; base media #1043, MES 250 mg/l, vitamins = 0.5 ppm folic acid + 0.05 ppm biotin, nine weeks, dark, control 42.9) | Growth of cultures, as measured by culture diameter, relative to the control ([2]; 250 mg/l MES in media #1043) | Growth of cultures, as measured by culture diameter, relative to the control ([2]; higher concentrations of MES (500, 1000, 1500 mg/l) in media #1043) |
| --- | --- | --- | --- | --- | --- | --- | --- | --- | --- | --- | --- | --- | --- | --- | --- | --- |
| CC(C)(C)[C@@H](O)[C@@H](Cc1ccc(Cl)cc1)n1cncn1 (racemic) [paclobutrazol] | 46.8 | 37.3 | 46.0 | 46.1 | 44.7 | 35.3 | 58.1 | 4.13 | 13.4 | 5.00 | 19.6 | 5.23 | 21.5 |  |  |  |
| O=S(=O)(O)CCN1CCOCC1 [MES, 2-(N-morpholino)-ethanesulfonic acid] |  |  |  |  |  |  |  |  |  |  |  |  |  | 47.7 | increased | inhibited |
